Data taken from patent publication US20240116985A1, “STAPLED PEPTIDES AND METHODS THEREOF” (priority 2020, published 2024).

Target: T1, full-length beta-Catenin (Uniprot ID P35222) (Homo sapiens, UniProt P35222)
T1 construct: 10 nM full-length beta-Catenin (Uniprot ID P35222)
T1 sequence (P35222 1-781): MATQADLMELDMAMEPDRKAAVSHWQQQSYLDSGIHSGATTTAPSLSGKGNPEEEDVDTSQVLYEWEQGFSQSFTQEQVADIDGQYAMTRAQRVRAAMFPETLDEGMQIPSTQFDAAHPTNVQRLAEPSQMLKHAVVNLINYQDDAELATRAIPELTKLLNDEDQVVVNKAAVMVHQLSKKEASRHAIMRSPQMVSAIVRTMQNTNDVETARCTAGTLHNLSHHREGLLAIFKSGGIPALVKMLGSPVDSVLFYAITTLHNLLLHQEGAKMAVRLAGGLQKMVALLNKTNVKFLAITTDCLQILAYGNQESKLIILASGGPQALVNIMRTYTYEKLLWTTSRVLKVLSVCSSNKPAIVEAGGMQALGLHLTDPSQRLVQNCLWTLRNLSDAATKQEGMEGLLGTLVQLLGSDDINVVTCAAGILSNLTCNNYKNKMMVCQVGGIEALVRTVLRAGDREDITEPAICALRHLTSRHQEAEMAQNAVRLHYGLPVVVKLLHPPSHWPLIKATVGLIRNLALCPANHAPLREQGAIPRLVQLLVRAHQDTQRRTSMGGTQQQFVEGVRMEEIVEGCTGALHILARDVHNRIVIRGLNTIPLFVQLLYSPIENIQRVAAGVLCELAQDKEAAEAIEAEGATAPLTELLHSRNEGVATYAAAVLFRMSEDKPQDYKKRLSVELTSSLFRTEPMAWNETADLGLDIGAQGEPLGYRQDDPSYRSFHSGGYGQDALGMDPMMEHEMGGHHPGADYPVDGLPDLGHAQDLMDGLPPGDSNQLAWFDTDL
Assay: Fluorescence polarization IC50 (beta-catenin / 5FAM-TCF4 10-53 competition)
Type: binding
Conditions: beta-Catenin FP IC50, fluorescence polarization

Structure (SMILES)	IC50
CC(=O)N1CCC[C@]12CC=CCCCC1(CCCC=CCCCOC(=O)N3CC[C@@](C(=O)N[C@@H](Cc4ccccc4Cl)C(=O)N[C@@H](Cc4csc5ccccc45)C(=O)N[C@@H](CC(C)C)C(N)=O)(C3)NC(=O)[C@H](CC(C)C)NC(=O)[C@H](Cc3ccccc3)NC(=O)[C@H](C)NC(=O)[C@H](C)NC(=O)[C@H](CC(=O)O)NC(=O)[C@H](CC(=O)O)NC1=O)NC(=O)[C@H]([C@@H](C)O)NC(=O)[C@H](CC(=O)O)NC2=O (stereo partly drawn) [I-1424, Ac-PL3-Asp-Thr-B5-Asp-Asp-Ala-Ala-Phe-Leu-PyrS2-2C1F-BztA-Leu-NH2]	235 nM

Same assay, conditions: fluorescence polarization, beta-catenin; read-out: FP EC50

Structure (SMILES)	IC50
CCCC[C@@H]1NC(=O)[C@H](CC(=O)O)NC(=O)[C@]2(CC=CCCCC3(CCCC=CCCCOC(=O)N4CC[C@@](C(=O)N[C@@H](Cc5ccccc5Cl)C(=O)N[C@@H](Cc5csc6ccccc56)C(=O)N[C@@H](CC(C)C)C(N)=O)(C4)NC(=O)[C@H](CC(C)C)NC(=O)[C@H](Cc4ccccc4)NC(=O)[C@H](C)NC(=O)[C@H](C)NC(=O)[C@H](CC(=O)O)NC(=O)[C@H](CC(=O)O)NC3=O)NC1=O)CCCN2C(C)=O (stereo partly drawn) [I-1420, Ac-PL3-Asp-nLeu-B5-Asp-Asp-Ala-Ala-Phe-Leu-PyrS2-2C1F-BztA-Leu-NH2]	124 nM

Same assay, conditions: fluorescence polarization; read-out: beta-Catenin FP IC50

Structure (SMILES)	IC50
CC(=O)N1CCC[C@]12CC=CCCCC1(CCCC=CCCCOC(=O)N3CC[C@@](C(=O)N[C@@H](Cc4cccc(-c5ccccc5)c4)C(=O)N[C@@H](Cc4ccccc4C(F)(F)F)C(=O)N[C@@H](CCC(N)=O)C(N)=O)(C3)NC(=O)[C@H](CC(C)C)NC(=O)[C@H](Cc3ccccc3)NC(=O)[C@H](C)NC(=O)[C@H](C)NC(=O)[C@H](Cc3cccc(C(=O)O)c3)NC(=O)[C@H](CC(=O)O)NC1=O)NC(=O)[C@H](CC(C)(C)C)NC(=O)[C@H](CC(=O)O)NC2=O (stereo partly drawn) [I-2256, Ac-PL3-Asp-Npg-B5-Asp-3COOHF-Ala-Ala-Phe-Leu-PyrS2-[Ph]3SF-2F3MeF-Gln-NH2]	8410 nM
CC(=O)N1CCC[C@]12CC=CCCCC1(CCCC=CCCCOC(=O)N3CC[C@@](C(=O)N[C@@H](Cc4ccsc4)C(=O)N[C@@H](Cc4c[nH]c5ccccc45)C(=O)N[C@@H](CCC(N)=O)C(N)=O)(C3)NC(=O)[C@H](CC(N)=O)NC(=O)[C@H](Cc3ccccc3)NC(=O)[C@H](C)NC(=O)[C@H](C)NC(=O)[C@H]([C@@H](C)O)NC(=O)[C@H](CC(N)=O)NC1=O)NC(=O)[C@H](CC(C)(C)C)NC(=O)[C@H](CC(=O)O)NC2=O (stereo partly drawn) [I-1877, Ac-PL3-Asp-Npg-B5-Asn-Thr-Ala-Ala-Phe-Asn-PyrS2-3Thi-Trp-Gln-NH2]	1520 nM
CC(=O)N1CCC[C@]12CC=CCCCC1(CCCC=CCCCOC(=O)N3CC[C@@](C(=O)N[C@@H](Cc4ccsc4)C(=O)N[C@@H](Cc4csc5ccccc45)C(=O)N[C@@H](CCC(N)=O)C(N)=O)(C3)NC(=O)[C@H](CC(N)=O)NC(=O)[C@H](Cc3ccccc3)NC(=O)[C@H](C)NC(=O)[C@H](C)NC(=O)[C@H](CC(N)=O)NC(=O)[C@H](CO)NC1=O)NC(=O)[C@H](CC(C)(C)C)NC(=O)[C@H](CC(=O)O)NC2=O (stereo partly drawn) [I-1561, Ac-PL3-Asp-Npg-B5-Ser-Asn-Ala-Ala-Phe-Asn-PyrS2-3Thi-BztA-Gln-NH2]	2600 nM
CC(=O)N1CCC[C@]12CC=CCCCC1(CCCC=CCCCOC(=O)N3CC[C@@](C(=O)N[C@@H](Cc4ccsc4)C(=O)N[C@@H](Cc4csc5ccccc45)C(=O)N[C@@H](CCC(N)=O)C(N)=O)(C3)NC(=O)[C@H](CCCNC(=N)N)NC(=O)[C@H](Cc3ccccc3)NC(=O)[C@H](C)NC(=O)[C@H](C)NC(=O)[C@H]([C@@H](C)O)NC(=O)[C@H](CC(N)=O)NC1=O)NC(=O)[C@H](CC(C)(C)C)NC(=O)[C@H](CC(=O)O)NC2=O (stereo partly drawn) [I-1882, Ac-PL3-Asp-Npg-B5-Asn-Thr-Ala-Ala-Phe-Arg-PyrS2-3Thi-BztA-Gln-NH2]	397 nM
CC(=O)N1CCC[C@]12CC=CCCCC1(CCCC=CCCCCC[C@@](C)(C(=O)N[C@@H](Cc3ccsc3)C(=O)N[C@@H](Cc3csc4ccccc34)C(=O)N[C@@H](CCC(N)=O)C(N)=O)NC(=O)[C@H](CC(C)C)NC(=O)[C@H](Cc3ccccc3)NC(=O)[C@H](C)NC(=O)[C@H](C)NC(=O)[C@H](CC(=O)O)NC(=O)[C@H](CC(=O)O)NC1=O)NC(=O)[C@H](CC(C)(C)C)NC(=O)[C@H](CC(=O)O)NC2=O (stereo partly drawn) [I-1820, Ac-PL3-Asp-Npg-B5-Asp-Asp-Ala-Ala-Phe-Leu-S7-3Thi-BztA-Gln-NH2]	422 nM
CC(=O)N1CCC[C@]12CC=CCCCC1(CCCC=CCOC(=O)N(C)CC[C@@](C)(C(=O)N[C@@H](Cc3ccsc3)C(=O)N[C@@H](Cc3csc4ccccc34)C(=O)N[C@@H](CCC(N)=O)C(N)=O)NC(=O)[C@H](CC(N)=O)NC(=O)[C@H](Cc3ccccc3)NC(=O)[C@H](C)NC(=O)[C@H](C)NC(=O)[C@H](CC(=O)O)NC(=O)[C@H](CC(=O)O)NC1=O)NC(=O)[C@H](CC(C)(C)C)NC(=O)[C@H](CC(=O)O)NC2=O (stereo partly drawn) [I-1829, Ac-PL3-Asp-Npg-B5-Asp-Asp-Ala-Ala-Phe-Asn-SdN-3Thi-BztA-Gln-NH2]	668 nM
CC(=O)N1CCC[C@]12CC=CCCCC1(CCCC=CCCCOC(=O)N3CC[C@@](C(=O)N[C@@H](Cc4ccsc4)C(=O)N[C@@H](Cc4csc5ccccc45)C(=O)N[C@@H](CCC(N)=O)C(N)=O)(C3)NC(=O)[C@H](CCC(C)C)NC(=O)[C@H](Cc3ccccc3)NC(=O)[C@H](C)NC(=O)[C@H](C)NC(=O)[C@H]([C@@H](C)O)NC(=O)[C@H](CC(N)=O)NC1=O)NC(=O)[C@H](CC(C)(C)C)NC(=O)[C@H](CC(=O)O)NC2=O (stereo partly drawn) [I-1620, Ac-PL3-Asp-Npg-B5-Asn-Thr-Ala-Ala-Phe-hLeu-PyrS2-3Thi-BztA-Gln-NH2]	2060 nM
CC(=O)N1CCC[C@]12CCCCCCC1(CCCCCCCCOC(=O)N3CC[C@@](C(=O)N[C@@H](Cc4ccccc4Cl)C(=O)N[C@@H](Cc4csc5ccccc45)C(=O)N[C@@H](CCC(N)=O)C(N)=O)(C3)NC(=O)[C@H]([C@@H](C)O)NC(=O)[C@H](Cc3ccccc3)NC(=O)[C@H](C)NC(=O)[C@H](C)NC(=O)[C@H](CN(CC(=O)O)CC(F)(F)F)NC(=O)[C@H](CC(=O)O)NC1=O)NC(=O)[C@H](CC(C)(C)C)NC(=O)[C@H](CC(=O)O)NC2=O (stereo partly drawn) [I-1606, Ac-PL3-Asp-Npg-B5-Asp-TfeGA-Ala-Ala-Phe-Thr-PyrS2-2C1F-BztA-Gln-NH2]	107 nM
CC(=O)N1CCC[C@]12CC=CCCCC1(CCCC=CCCCOC(=O)N3CC[C@@](C(=O)N[C@@H](Cc4ccccc4)C(=O)N[C@@H](Cc4csc5ccccc45)C(=O)N[C@@H](CCC(N)=O)C(N)=O)(C3)NC(=O)[C@H](Cc3c[nH]cn3)NC(=O)[C@H](Cc3ccccc3)NC(=O)[C@H](C)NC(=O)[C@H](C)NC(=O)[C@H](CCC(N)=O)NC(=O)[C@H](CC(=O)O)NC1=O)NC(=O)[C@H](CC(C)(C)C)NC(=O)[C@H](CC(N)=O)NC2=O (stereo partly drawn) [I-2440, Ac-PL3-Asn-Npg-B5-Asp-Gln-Ala-Ala-Phe-His-PyrS2-Phe-BztA-Gln-NH2]	360 nM
CC(=O)N1CCC[C@]12CC=CCCCC1(CCCC=CCCCOC(=O)N3CC[C@@](C(=O)N[C@@H](Cc4ccccc4C(F)(F)F)C(=O)N[C@@H](Cc4csc5ccccc45)C(=O)N[C@@H](CCC(N)=O)C(N)=O)(C3)NC(=O)[C@H](CC(N)=O)NC(=O)[C@H](Cc3ccccc3)NC(=O)[C@H](C)NC(=O)[C@H](C)NC(=O)[C@H]([C@@H](C)O)NC(=O)[C@H](CC(N)=O)NC1=O)NC(=O)[C@H](CC(C)(C)C)NC(=O)[C@H](CC(=O)O)NC2=O (stereo partly drawn) [I-1738, Ac-PL3-Asp-Npg-B5-Asn-Thr-Ala-Ala-Phe-Asn-PyrS2-2F3MeF-BztA-Gln-NH2]	1060 nM
CC(=O)N1CCC[C@]12CC=CCCCC1(CCCC=CCCCOC(=O)N3CC[C@@](C(=O)N[C@@H](Cc4ccccc4)C(=O)N[C@@H](Cc4csc5ccccc45)C(=O)N[C@@H](CCC(N)=O)C(N)=O)(C3)NC(=O)[C@H](CC(N)=O)NC(=O)[C@H](Cc3ccccc3)NC(=O)[C@H](C)NC(=O)[C@H](CCCCNC(C)C)NC(=O)[C@H](CCC(N)=O)NC(=O)[C@H](CC(=O)O)NC1=O)NC(=O)[C@H](CC1CCCCC1)NC(=O)[C@H](CC(N)=O)NC2=O (stereo partly drawn) [I-2113, Ac-PL3-Asn-Cha-B5-Asp-Gln-iPrLys-Ala-Phe-Asn-PyrS2-Phe-BztA-Gln-NH2]	164 nM
CC(=O)N1CCC[C@]12CCCCCC1(CCCCCCCOC(=O)N3CC[C@@](C(=O)N[C@@H](Cc4ccsc4)C(=O)N[C@@H](Cc4csc5ccccc45)C(=O)N[C@@H](CCC(N)=O)C(N)=O)(C3)NC(=O)[C@H](CC(C)C)NC(=O)[C@H](Cc3ccccc3)NC(=O)[C@H](C)NC(=O)[C@H](C)NC(=O)[C@H](CC(=O)O)NC(=O)[C@H](CC(=O)O)NC1=O)NC(=O)[C@H](CC(C)(C)C)NC(=O)[C@H](CC(=O)O)NC2=O (stereo partly drawn) [I-1975, Ac-PL3-Asp-Npg-B4-Asp-Asp-Ala-Ala-Phe-Leu-PyrS2-3Thi-BztA-Gln-NH2]	745 nM
CCCC[C@@H]1NC(=O)[C@H](CC(=O)O)NC(=O)[C@]2(CC=CCCCC3(CCCC=CCCCOC(=O)N4CC[C@@](C(=O)N[C@@H](Cc5ccccc5Cl)C(=O)N[C@@H](Cc5csc6ccccc56)C(=O)N[C@@H](CC(C)C)C(N)=O)(C4)NC(=O)[C@H](CC(C)C)NC(=O)[C@H](Cc4ccccc4)NC(=O)[C@H](C)NC(=O)[C@H](C)NC(=O)[C@H](CC(=O)O)NC(=O)[C@H](CC(=O)O)NC3=O)NC1=O)CCCN2C(C)=O (stereo partly drawn) [I-1420, Ac-PL3-Asp-nLeu-B5-Asp-Asp-Ala-Ala-Phe-Leu-PyrS2-2C1F-BztA-Leu-NH2]	124 nM
CC(=O)N1CCC[C@]12CC=CCCCC1(CCCC=CCCCOC(=O)N3CC[C@@](C(=O)N[C@@H](Cc4cccc(Cl)c4)C(=O)N[C@@H](Cc4csc5ccccc45)C(=O)N[C@@H](CCO)C(N)=O)(C3)NC(=O)[C@H](CC(N)=O)NC(=O)[C@H](Cc3ccccc3)NC(=O)[C@H](C)NC(=O)[C@H](CCCCNC(C)C)NC(=O)[C@H](CCC(N)=O)NC(=O)[C@H](CC(=O)O)NC1=O)NC(=O)[C@H](CC1CCCCC1)NC(=O)[C@H](CC(N)=O)NC2=O (stereo partly drawn) [I-1928, Ac-PL3-Asn-Cha-B5-Asp-Gln-iPrLys-Ala-Phe-Asn-PyrS2-3C1F-BztA-Hse-NH2]	887 nM
